Source: ChEMBL document CHEMBL3507680, “University of Dundee, Gates Library screen for HepG2 cell viability”

Test: Human HepG2 cell viability assay in 384 well format
Assay type: toxicity, cell-based
Set-up: dose 125 nL, time 70.5 hour; cytotoxicity at 70.5 h: concentration not given beside the values
Details: HepG2 cells, read-out: Inhibition

O=C(CCc1ccccc1)C1CCCN(Cc2cncn2C2CC2)C1 (stereo not given)
cytotoxicity at 70.5 h: 2.12%

CCCOCCN1CCc2[nH]c(-c3ccccc3)nc2C1
cytotoxicity at 70.5 h: 11.7%

CC(C)(O)CCc1cccc(C(=O)NCCC2=CSC3=NCCCN23)c1
cytotoxicity at 70.5 h: -0.369%

Cc1cc(CN2CC[C@@H]3[C@@H](CCC(=O)N3CCc3c[nH]cn3)C2)oc1C
cytotoxicity at 70.5 h: 1.03%

Cc1ccc(OC2(C(=O)O)CCN(C(=O)c3ccoc3C)CC2)cn1
cytotoxicity at 70.5 h: -0.44%

Cc1cc(N2CCC(CO)(CC3CCCCO3)CC2)nc2ccccc12 (stereo not given)
cytotoxicity at 70.5 h: -9.32%

Cc1nc2c(c(NCc3ccc(-c4ccccn4)s3)n1)CCNCC2
cytotoxicity at 70.5 h: -8.23%

CN(C)C(=O)N1C[C@H]2CC[C@@H]1CN(C1Cc3ccccc3C1)C2
cytotoxicity at 70.5 h: -9.42%

Cc1cc2c(N3CCC(N(C)CCc4cnn(C)c4)CC3)ncnc2s1
cytotoxicity at 70.5 h: 2.46%

CN(C)c1nc2c(c(N(C)Cc3n[nH]c4c3CCCCC4)n1)CCNC2
cytotoxicity at 70.5 h: -9.48%

CN1CCCN(C(=O)c2nc3sccn3c2-c2ncc[nH]2)CC1
cytotoxicity at 70.5 h: -13%

CCC(CO)N(Cc1ccccn1)C(=O)c1ccc(CSC)o1 (stereo not given)
cytotoxicity at 70.5 h: -0.517%

Cc1noc(C)c1-c1n[nH]c2c1CN(S(=O)(=O)c1ccsc1)CC2
cytotoxicity at 70.5 h: 15.3%

O=C(Cc1ccc2c(c1)OCO2)N1CCN(c2ccccc2Cl)C(=O)C1
cytotoxicity at 70.5 h: -4.7%

CS(=O)(=O)N1C[C@H]2CC[C@@H]1CN(Cc1ccncc1)C2
cytotoxicity at 70.5 h: -10.9%

Cc1nc2c(c(NCC(=O)NC(C)C)n1)Cc1ccccc1OC2
cytotoxicity at 70.5 h: -2.23%

CC(C)Cc1noc(CN(C)c2cc(N(C)C)ncn2)n1
cytotoxicity at 70.5 h: -7.9%

COCCN1CCC(CN(CC2CCCO2)C(=O)Cc2cccs2)CC1 (stereo not given)
cytotoxicity at 70.5 h: -4.23%

CCn1c(C2CCCN(Cc3cc(C)cc(C)c3)C2)nn(C)c1=O (stereo not given)
cytotoxicity at 70.5 h: 3.73%

CSc1ncc(CN2C[C@H]3CC[C@@H]2CN(C2CCOCC2)C3)cn1
cytotoxicity at 70.5 h: -3.4%

CCC[C@H]1CN(CCOC)C[C@@H]1NC(=O)Cn1cc(C)cn1
cytotoxicity at 70.5 h: 4.5%

CC(C)CCN1CC2(CCN(C(=O)C3(C)CCCCO3)CC2)OC1=O (stereo not given)
cytotoxicity at 70.5 h: 49.2%

CC(C)(C)CN1CCCC(O)(CN2CCc3[nH]ncc3C2)C1=O (stereo not given)
cytotoxicity at 70.5 h: -1.48%

Cc1cc(C(=O)NC(C)C(=O)Nc2cc(F)ccc2C)nc(C)n1 (stereo not given)
cytotoxicity at 70.5 h: 5.43%

CCc1cnc(NCCCOC2CCCC2)nc1
cytotoxicity at 70.5 h: -16.5%

COCCN(Cc1sccc1C)C(=O)COc1cccnc1
cytotoxicity at 70.5 h: -4.34%

Cc1ccc([C@@H]2CN(C(=O)c3cc[nH]c3)C[C@H]2NC(=O)C2CC2)cc1
cytotoxicity at 70.5 h: -10.7%

CN(CCc1noc(C2CC2)n1)C(=O)CCc1cc2n(n1)CCCNC2
cytotoxicity at 70.5 h: -9.33%

CCC(C)N(Cc1sccc1C)C(=O)c1cnc[nH]1 (stereo not given)
cytotoxicity at 70.5 h: -6.28%

O=C(O)c1coc(COc2cccc3cnccc23)n1
cytotoxicity at 70.5 h: -7.63%

N#CC1(C(=O)N2C[C@H]3CC[C@@H]2CN(Cc2cscn2)C3)CCOCC1
cytotoxicity at 70.5 h: 15.7%

O=C(c1ccccc1)N1C[C@@H]2CC[C@H](C1)N(Cc1cc(F)ccc1Cl)C2
cytotoxicity at 70.5 h: 27%

CC(=O)c1ccc(-c2cnn(CC(=O)Nc3ccnn3C)c2)nc1
cytotoxicity at 70.5 h: -9.08%

O=C(CN1CCCC1)N1CCCC(CNS(=O)(=O)Cc2ccccc2)C1 (stereo not given)
cytotoxicity at 70.5 h: 22.2%

Cc1nc(C(C)Nc2ncnc3c2CCNCC3)c(C)s1 (stereo not given)
cytotoxicity at 70.5 h: -4.99%

CCOc1ccc(CN2CC[C@H]3CC[C@@H](C2)N3)cc1CO
cytotoxicity at 70.5 h: -14%

CCOC(=O)C1(Cc2cccc(OC)c2)CCCN(Cc2ncc[nH]2)C1 (stereo not given)
cytotoxicity at 70.5 h: 22%

CCN1CC2(CCC1=O)CCN(Cc1cccc(OC(F)F)c1)CC2
cytotoxicity at 70.5 h: 20.5%

CC(O)CN1CC2(CCC1=O)CCN(C(=O)c1cnn(C)c1)CC2 (stereo not given)
cytotoxicity at 70.5 h: -1.73%

O=C(c1cccnc1SC/C=C/c1ccccc1)N1CC[C@H](O)C1
cytotoxicity at 70.5 h: 2.11%

CC(C)c1nnsc1CN1CCc2[nH]nc(-c3ccc(Cl)cc3)c2C1
cytotoxicity at 70.5 h: 9.53%

COCCn1ccnc1C1CCN(C(=O)c2cccc(COC)n2)CC1
cytotoxicity at 70.5 h: -4.2%

CC(C)c1cc(C2CCCN2C(=O)CN2C(=O)CCNC2=O)no1 (stereo not given)
cytotoxicity at 70.5 h: -5.21%

O=C(CCN1CCCCO1)N1CCC(CO)(Cc2ccccc2)CC1
cytotoxicity at 70.5 h: -6.23%

CC1(C)CN(Cc2cc(C3CCCCC3)no2)CC[C@]1(C)O
cytotoxicity at 70.5 h: -12.5%

Cc1cc(C)c2nc(CNC3CCCNC3=O)cc(O)c2c1 (stereo not given)
cytotoxicity at 70.5 h: -6.5%

COC(=O)CCCNC(=O)c1cc(COc2cncc(Cl)c2)on1
cytotoxicity at 70.5 h: 0.545%

O=C(C1CC1)N1CCc2c(ncnc2NCCc2nc3c(s2)CCC3)C1
cytotoxicity at 70.5 h: 13.5%

Fc1ccccc1C1(CNC2CCOC3(CCOCC3)C2)CCCC1 (stereo not given)
cytotoxicity at 70.5 h: -9.34%

COc1cccc(OC)c1-c1c[nH]c(C)n1
cytotoxicity at 70.5 h: -19.9%

CC(C)C(C)N(Cc1cnc2ccccc2n1)Cc1ccco1 (stereo not given)
cytotoxicity at 70.5 h: -8.62%

CC(=O)Nc1ccc(CNC(=O)CNCc2sc(C)nc2C)cc1
cytotoxicity at 70.5 h: 6.71%

CCC(NC(=O)CC1CCN(C(C)C)CC1)c1cn2cccnc2n1 (stereo not given)
cytotoxicity at 70.5 h: 1.45%

Cc1ccccc1N1CCN(c2nc(N(C)C)nc3c2CCNC3)CC1
cytotoxicity at 70.5 h: 33.6%

Nc1nnc(SCC(=O)NCC(O)c2ccccc2)s1 (stereo not given)
cytotoxicity at 70.5 h: 18.6%
